Here are results for 4 molecules from US6380204B1, “Atropisomers of 3-heteroaryl-4(3H)-quinazolinones for the treatment of neurodegenerative and CNS-trauma related conditions” (Pfizer INC, priority 1997, dated 2002).

Data set [1] deals with global ischemia. The settings on record: noncompetitive AMPA receptor antagonist; LaPeillet et al.; cited from earlier work.
Data set [2] has as its system global and focal ischemic damage. The conditions noted are these: competitive AMPA receptor antagonist; Sheardown et al., Buchan et al., LePeillet et al.; cited from earlier work.

`Cc1nc(CCc2nc3ccc(F)cc3c(=O)n2-c2cccnc2C)cs1` came in with a melting point of 151 to 153 °C.
On the same count and under the same terms, as for `CS(=O)(=O)O.Cc1nc(C=Cc2nc3ccc(F)cc3c(=O)n2-c2cccnc2C)cs1` (single isomer, unassigned), the figure is 145 to 146 °C.
On to `CC1=NN=C(c2ccc(N)cc2)c2cc3c(cc2C1)OCO3` [GKYI 52466], for which the “neuroprotection in rat global ischemia models” value in data set [1] is listed as “effective neuroprotective agent”.
For `NS(=O)(=O)c1cccc2c1c([N+](=O)[O-])cc1nc(O)c(O)nc12` [NBQX, 2,3-dihydroxy-6-nitro-7-sulfamoylbenzo[f-]quinoxaline], the “prevention of global and focal ischemic damage” value in data set [2] was “effective in preventing global and focal ischemic damage”.
